Experimental findings from patent US20250057951A1, “DISCERNIBLE CELL SURFACE PROTEIN VARIANTS OF CD117 FOR USE IN CELL THERAPY” (UNIVERSITÄT BASEL, priority 2021, published 2025) are described below.

What is called Kd is the constant that tells how readily two partners part at equilibrium.

One assay concerns TF-1 cells. Nature of the assay: SCF-dependent proliferation, SCF titration on TF-1 cells with CD117 variants (CellTiter-Glo). Type of assay: cell-based, human. The conditions noted are these: for EC50 Average: average of two experiments; for EC50 Experiment #1 / EC50 Experiment #2: titration of SCF, 3 days, TF-1 cells with the CD117 variant. As to the method:
In another experiment, SCF-dependent proliferation of variants E73K, E73Y, D121K, S123F and S123K was compared against wildtype CD117. TF-1 cells were seeded at a cell concentration of 150 000 cells/ml in sterile, white cell culture treated plates with transparent bottom in RPMI+GlutaMax+10% FCS. Cells were treated with a titration of SCF. After 3 days of incubation a CellTiter-Glo 2.0 assay (Promega) was performed, luminescence was read in a luminometer (Envision plate reader) and EC50's was determined. Two different experiments with triplicates in each experiment were performed.
(In general: ATP-based viability assays read luminescence as a measure of living cells.)

In assay [1] the target is antibody Refmab #1. Nature of the assay: Octet titration, steady state KD of CD117 D1-2-3 variants to Refmab #1. Type of assay: binding. The settings on record: for Kd: 7 concentrations 2000-5 nM, steady state, two individual experiments. As to the method: To further characterize binding of Refmab #1 to CD117 D1-2-3 variants E73K, E73L, E73R, E73Y, D121H, D121K, S123K and S123F, the analytes were titrated at 7 different concentrations (from 2000 nM to 5 nM). Antibody Refmab #1 was captured by AHC biosensors for 300 s at 0.5 to 1 μg/mL. Association and dissociation to Refmab #1 was extended to 600 s and 1000 s, respectively. Steady state analysis was performed.
Sequence of antibody Refmab #1 (as listed by the source, one chain of several): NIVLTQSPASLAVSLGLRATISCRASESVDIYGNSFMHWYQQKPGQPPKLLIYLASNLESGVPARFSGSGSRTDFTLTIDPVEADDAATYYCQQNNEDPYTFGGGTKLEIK
Sequence of Refmab #1 (as listed by the source, one chain of several): as above
(Biolayer interferometry detects binding as a change in optical thickness at a sensor tip.)

For a further assay, the system named is Refmab #1. Nature of the assay: Refmab #1 titration on engineered TF-1 cells (flow cytometry). Type of assay: binding. The conditions noted are these: 5-0.00015 μg/mL antibody; 4° C. As to the method:
Binding of Refmab #1 was assessed in a flow cytometry assay. TF-1 cells were seeded at a cell concentration of 1,000,000 cells/ml in FACS Buffer (PBS+2% FCS+1 mM EDTA). After a Fc blocking using 1:20 diluted TruStain (BioLegend, #422302) in FACS buffer for 15 minutes at 4° C., cells were washed twice with FACS buffer. Subsequently, a SR-1 titration was added to the cells using 5-0.00015 μg/mL antibody for 30 minutes at 4° C. on a plate shaker. Cells were washed twice with FACS buffer and a secondary labelled antibody (IgG (H+L) Cross-Adsorbed Goat anti-Human, Alexa Fluor® 488, Invitrogen, A11013) was added to the cells for 30 minutes at 4° C. on a plate shaker. Cells were washed twice with FACS buffer, before adding 1:100 diluted solution of 7AAD staining (cell viability) in FACS buffer for a couple of minutes and analyzing the cells using the Novocyte Quanteon (Agilent).
For orientation: A flow cytometer gives signals particle by particle.

For assay [2], the system named is antibody Refmab #1. Nature of the assay: Octet screen: binding of CD117 D1-2-3 variants to captured Refmab #1. The conditions noted are these: nm shift at end of association, top analyte concentration (500 nM). As to the method: (§1) A more sophisticated analysis of binding to the elected variants was performed with antibody Refmab #1. Binding of Refmab #1 to wt and variants (analyte) was measured in an Octet system RED96e or R8 at 25° C. with shaking at 1,000 rpm using 1× kinetic buffer (Sartorius, PN: 18-1105). First, the elected variants were screened for their ability to bind Refmab #1 using three different concentrations of analytes. Antibody Refmab #1 was captured by Anti-Human Fc capture biosensor (AHC) (Sartorius, PN: 18-5060) for 300 s at 0.5 to 1 μg/mL. As an analyte, human CD117 wt and variants, containing only domains 1, 2 and 3 (CD117 D1-2-3), was titrated at 500 nM, 50 nM and 5 nM. Association and dissociation of the analyte to Refmab #1 was monitored for 300 s and 900 s, respectively. Reference subtraction was performed against buffer only wells. AHC tips were regenerated using 10 mM Gly-HCl pH 1.7. Data were analyzed using the Octet Data Analysis software HT 12.0. Data were fitted (when possible) to a 1:1 binding model. Kinetic rates ka and […] globally fitted. Binding level of the elected variants were compared to wild type and are shown as percent in FIG. 7. For this qualitative analysis, the binding level of the top analyte concentration at end of the association step was used.

In the next assay the target is T1, SCF (Homo sapiens, UniProt P21583).
T1 construct: purchased Acros Biosystems SCF-H82E1
T1 sequence (P21583 26-273): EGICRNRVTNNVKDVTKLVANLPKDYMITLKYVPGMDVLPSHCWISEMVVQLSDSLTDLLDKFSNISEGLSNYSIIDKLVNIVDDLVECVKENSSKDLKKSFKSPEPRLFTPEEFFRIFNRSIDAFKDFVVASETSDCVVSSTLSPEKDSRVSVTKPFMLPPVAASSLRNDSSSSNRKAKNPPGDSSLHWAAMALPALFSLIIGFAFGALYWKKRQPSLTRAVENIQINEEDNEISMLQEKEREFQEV
The assay is described as follows: Octet: binding of CD117 D1-2-3 variants to SCF. The conditions noted are these: CD117 D1-2-3 constructs; steady state. The protocol: SCF binding is one function of CD117. SCF binding is important for the transmission of functional signals by CD117. Binding of the elected variants to SCF was measured on an Octet system RED96e or R8 at 25° C. with shaking at 1000 rpm using 1× Kinetic Buffer (Sartorius, PN: 18-1105). […] Domain 1, 2, 3 comprise the binding site for SCF. Domains 4 and 5 were used as a negative, non-binding control.
CD117 D1-2-3 wt and variants thereof are titrated with different concentrations from 1000 to 5 nM. Association was monitored for 300 s and dissociation for 600 s. Binding to human CD117 domain 4 and 5 (CD117 D4-5) was performed under the same conditions as non-binding control. Reference subtraction was performed against buffer only wells. Biosensors were not regenerated and a new set of SA biosensors was used for each analyte. Data were analyzed using the Octet Data Analysis software HT 12.0. Steady state data analysis was performed due to the fast on/off nature of the interaction.

A further assay relates to Refmab #2. The assay is described as follows: Octet: binding of CD117 variants to Refmab #2. The settings on record: qualitative Octet analysis. As to the method: as §1
A similar experiment to that in Example 7 was performed, but utilizing Refmab's #2 and #3.

The next assay addresses T2, Biotinylated Avitag-hSCF (human, UniProt P21583 26-190, limits assumed, biotinylated Avitag).
T2 construct: Bought reagent; also called hSCF (Acros Biosystems SCF-H82E1)
The assay is described as follows: BLI (Octet), steady state: biotinylated SCF on streptavidin biosensor, CD117 D1-2-3 variant as analyte; KD relative to WT.

Another assay concerns the target human wild-type CD117 (human, UniProt P10721 26-976). The assay is described as follows: cell-based or functional assay.
The next assay deals with CD117. Nature of the assay: Blocking of SCF-induced CD117 phosphorylation (Tyr719 ELISA), wild type TF-1 cells. The conditions noted are these: 0.5 ug/mL antibody or 500 nM avapritinib; 100 ng/ml SCF 5 minutes. It is filed as cell-based, human. The protocol: (§2) SCF-dependent phosphorylation is another function of CD117. SCF-dependent phosphorylation was measured using TF-1 cells expressing CD117 (as shown in previous experiments). TF-1 cells were seeded at a concentration of 1 million cells/ml in 1 ml of Medium (RPMI1640 supplemented with GlutaMAX+10% heat inactivated FBS) in a 6-well plate. Cells were treated with 0.5 ug/mL antibody or 500 nM avapratinib. Cells were then treated with 100 ng/ml recombinant human SCF (1 mg/ml PeproGMP® Recombinant Human SCF) for 5 minutes, before cell collection. Cells were washed with ice-cold PBS, before resuspending cells in 250 μL Lysis Buffer (Lysis buffer from Signaling containing Protease Inhibitor and Phosphatase Inhibitor). Cells were flash frozen in liquid nitrogen and thawed at 37° C. twice, before freezing them at −80° C. until further usage. Undiluted samples were thawed and processed according to the manufacturers protocol for the PathScan® Phospho-c-Kit (Tyr719) Sandwich ELISA Kit (Cell Signaling). Absorbance (OD_450 nm) was assessed using the Envision (Perkin Elmer).
(§3) TF-1 cells (wild type, and variants E73K, E73Y, D121K, S123F and S123K of CD117) were seeded at a concentration of 1 million cells/mL in 2 ml of Medium (RPMI1640 supplemented with GlutaMAX+10% heat inactivated FBS) in a 6-well plate. Cells were pre-treated with 0.5 μg/ml of antibodies Refmab #1-Ernie or Refmab #1-Bert for 30 minutes, before adding 100 ng/ml recombinant human SCF (1 mg/mL PeproGMP® Recombinant Human SCF) for 5 minutes. Cells were collected, washed once with ice-cold PBS and resuspended in 500 μL Lysis Buffer (Lysis buffer from Signaling containing Protease Inhibitor and Phosphatase Inhibitor). Cells were then flash frozen in liquid nitrogen and thawed at 37° C. twice, before freezing them at −80° C. until further usage. Undiluted samples were thawed and processed according to the manufacturers protocol for the PathScan Phospho-c-Kit (Tyr719) Sandwich ELISA Kit (Cell Signaling) or the Human c-Kit (CD117) ELISA Kit (Abcam). Absorbance (OD_450 nm) was assessed using the Envision (Perkin Elmer).

The next assay deals with variants of CD117. Nature of the assay: Blocking of SCF-induced CD117 phosphorylation (Tyr719 ELISA), TF-1 cells with CD117 variants. It is filed as cell-based, human. The settings on record: 0.5 μg/ml antibody 30 minutes; 100 ng/ml SCF 5 minutes; same for E73K, E73Y, S123F (data not shown). The protocol: as §2, §3

Where a chain is given by its changes, count along the chain named. Numbers in names are those of the source. Entries after “also recorded” stand apart in the source; their conditions may differ.

T2 sequence (P21583 26-190 limits assumed): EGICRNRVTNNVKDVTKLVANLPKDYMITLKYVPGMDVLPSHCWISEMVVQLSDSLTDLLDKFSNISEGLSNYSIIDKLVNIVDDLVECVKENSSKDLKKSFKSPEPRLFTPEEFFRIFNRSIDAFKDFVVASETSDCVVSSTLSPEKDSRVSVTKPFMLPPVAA

Turning to “E73Y: variant of human CD117 with substitution E73Y”, in the assay with TF-1 cells, the “EC50 Average” value came to 4.01 ± 0.37 ng/mL, the “EC50 Experiment #1” value was 4.37 ng/mL and the “EC50 Experiment #2” value worked out at 3.64 ng/mL. Binding on antibody Refmab #1 [1] was put at a Kd of 691 nM. In the assay on antibody Refmab #1 [1] (KD variant vs wild type), the “change of KD compared to wild type CD117” value is reported as “around 700 fold”. For the same molecule, in the assay on Refmab #1, the “Binding of Refmab #1 to TF-1 cells expressing the CD117 variant” value is “completely abolished”. Besides, in the assay with antibody Refmab #1 [2], the “binding to Refmab #1 compared to wild type” value is “particular strong decrease in binding”.
In the case of “wild type CD117: wild type human CD117 (SEQ ID No. 1); recombinant D1-2-3 construct or expressed in TF-1 cells [reference compound]”, in the assay with TF-1 cells, the “EC50 Average” value turned out to be 4.18 ± 0.04 ng/mL, the “EC50 Experiment #1” value stood at 4.14 ng/mL and the “EC50 Experiment #2” value stood at 4.22 ng/mL. The molecule also gave a Kd on antibody Refmab #1 [1] of 1 nM. For the same molecule, in the assay with Refmab #1, the “Binding of Refmab #1 to TF-1 cells expressing the CD117 variant” value is reported as “bound”.

B1: S239H: variant of human CD117 with substitution S239H (protein)
chain: QPSVSPGEPSPPSIHPGKSDLIVRVGDEIRLLCTDPGFVKWTFEILDETNENKQNEWITEKAEATNTGKYTCTNKHGLSNSIYVFVRDPAKLFLVDRSLYGKEDNDTLVRCPLTDPEVTNYSLKGCQGKPLPKDLRFIPDPKAGIMIKSVKRAYHRLCLHCSVDQEGKSVLSEKFILKVRPAFKAVPVVSVSKASYLLREGEEFTVTCTIKDVHSSVYSTWKRENSQTKLQEKYNSWHHGDFNYERQATLTISSARVNDSGVFMCYANNTFGSANVTTTLEVVDKG
On to B1, for which the “KD increase of SCF binding compared to wild type CD117” value in the assay with SCF was “less than three-fold; also recorded: less than four-fold”. The “binding to Refmab #2 compared to wild type CD117” value in the assay on Refmab #2 is reported as “strong decrease in binding”.

B2: S239K: variant of human CD117 with substitution S239K (protein)
chain: B1 chain with H214K
Regarding B2, the “binding to Refmab #2 compared to wild type CD117” value with Refmab #2 was “strong decrease in binding”.

B3: R122H (receptor)
extracellular domains 1, 2 and 3: QPSVSPGEPSPPSIHPGKSDLIVRVGDEIRLLCTDPGFVKWTFEILDETNENKQNEWITEKAEATNTGKYTCTNKHGLSNSIYVFVRDPAKLFLVDHSLYGKEDNDTLVRCPLTDPEVTNYSLKGCQGKPLPKDLRFIPDPKAGIMIKSVKRAYHRLCLHCSVDQEGKSVLSEKFILKVRPAFKAVPVVSVSKASYLLREGEEFTVTCTIKDVSSSVYSTWKRENSQTKLQEKYNSWHHGDFNYERQATLTISSARVNDSGVFMCYANNTFGSANVTTTLEVVD
notes: not in the list MOLECULES; also called human CD117 D1-2-3 variant R122H
For B3, in the assay with Refmab #2, the “binding to Refmab #2 compared to wild type CD117” value is given as “strong decrease in binding”. Further, the binding result with Biotinylated Avitag-hSCF is “binds”. The “binding to Refmab #1 compared to wild type” value in the assay with antibody Refmab #1 [2] is recorded as “particular strong decrease in binding”.

B4: Refmab #1-Ernie (antibody, V domains shown)
VH: QVQLQQPGAELVKPGASVKMSCKASGYTFTSYNMHWVKQTPGQGLEWIGVIYSGNGDTSYNQKFKGKATLTADKSSSTAYMQINSLTSEDSAVYYCARERDTRFGNWGQGTLVTVSA
VL: EIVLTQSPSSLSASVGDRVTITCRASESVDIYGESFMHWYQQKPGKAPKLLIYLASNLESGVPSRFSGSGSGTDFTLTISSLQPEDFATYYCQQNNEEPYTFGQGTKLEIKR
Take B4: in the assay with human wild-type CD117, the “IC50 in a SCF-dependent proliferation assay on HSPC's” value came to 0.00521 µg/mL and the “IC50 in a SCF-dependent proliferation assay on TF-1 cells” value was 0.0176 µg/mL.

B5: Refmab #1-Bert (antibody, V domains shown)
VH: B4 VH
VL: B4 VL with N96K
As for B5, in the assay with human wild-type CD117, the “IC50 in a SCF-dependent proliferation assay on HSPC's” value worked out at 0.0313 µg/mL and the “IC50 in a SCF-dependent proliferation assay on TF-1 cells” value worked out at 0.0441 µg/mL.

B6: Refmab #1-Ernie: improved version of Refmab #1, VH SEQ ID 15, VL SEQ ID 62 (antibody, V domains shown)
VH: B4 VH
VL: EIVLTQSPSSLSASVGDRVTITCRASESVDIYGESFMHWYQQKPGKAPKLLIYLASNLESGVPSRFSGSGSGTDFTLTISSLQPEDFATYYCQQNNEEPYTFGQGTKLEIKRTV
modifications: Refmab #1 VH
Regarding B6, the “blocking of SCF-induced phosphorylation, wild type cells” value in the assay on CD117 was “blocked”. Besides, the “blocking of SCF-dependent CD117 phosphorylation, D121K and S123K variants” value in the assay with variants of CD117 was “unaffected”.
